Source: patent US20240261417A1, “SOS1 DEGRADING AGENT AND PREPARATION METHOD THEREFOR AND APPLICATION THEREOF” (SHANGHAI LEADINGTAC PHARMACEUTICAL CO. LTD., priority 2021, published 2024)

Tests used:
[1] = system: KRAS G12C mutant human non-small cell lung cancer cells NCI-H358; assay: 3D cell proliferation inhibition assay, NCI-H358; format: cell-based; conditions: 7 days, CTG
Method: (§1) Inhibition of 3D cell proliferation by the compounds was investigated on KRAS G12C mutant human non-small cell lung cancer cells NCI-H358 (ATCC or Stem Cell Bank, Chinese Academy of Sciences), KRAS G12D mutant human metastatic pancreatic adenocarcinoma cells AsPC-1 (ATCC), KRAS G12V mutant human lung adenocarcinoma cells NCI-H441 (ATCC), and KRAS G13D mutant human colorectal adenocarcinoma epithelial cells DLD-1 (ATCC). The specific procedures were as follows:
(§2) 200 nL of compound solution diluted in a gradient was added to corresponding microwells of a 384-well low-adsorption microwell plate (Corning, 3657) using an Echo sonic pipetting system (Labcyte, Echo 550), so that the final concentration of the test compound in the reaction system was in a range of 20000 nM-0.008 nM. Then 40 μL of cells at a certain density were added to the corresponding microplate. In addition to test wells for the test compounds, both a DMSO control well and a medium control well were set, with the DMSO control well containing DMSO and cells and the medium well containing only medium. After sample loading, the plate cover was applied, and the 384-well low-adsorption microplate was incubated in an incubator at 37° C. with 5% carbon dioxide for 7 days. After 7 days, the microplate was taken out, and 40 μL of CTG reagent (Promega, G9683) was added to each well. The plate was incubated at room temperature for 30 min and read on a microplate reader EnVision using the chemiluminescence program. The inhibition rates of the compounds at each concentration were calculated by the formula for the percentage inhibition of cell proliferation: inhibition rate %=(mean value of DMSO control group−single concentration reading value of compound)/(mean value of DMSO control group−mean value of medium control group)×100, and then nonlinear curve fitting was performed by GraphPad Prism 8 in the logarithmic concentration-inhibition rate to obtain the IC50 values of the compounds.

[2] = system: KRAS G12D mutant human metastatic pancreatic adenocarcinoma cells AsPC-1; assay: 3D cell proliferation inhibition assay, AsPC-1; format: cell-based; conditions: 7 days, CTG
Method: as §1, §2

[3] = system: KRAS G13D mutant human colorectal adenocarcinoma epithelial cells DLD-1; assay: 3D cell proliferation inhibition assay, DLD-1; format: cell-based; conditions: 7 days, CTG
Method: as §1, §2

[4] = system: KRAS G12V mutant human lung adenocarcinoma cells NCI-H441; assay: 3D cell proliferation inhibition assay, NCI-H441; format: cell-based; conditions: 7 days, CTG
Method: as §1, §2

KRAS-G12C/SOS1 = molecular target: T1, KRAS-G12C/SOS1 (Homo sapiens, UniProt Q07889); assay: KRAS-G12C/SOS1 binding assay (HTRF); conditions: inhibition of KRAS-G12C/SOS1 binding
T1 construct: purchased Cisbio 63ADKOOOCB16PEG
T1 sequence (Q07889 1-1333): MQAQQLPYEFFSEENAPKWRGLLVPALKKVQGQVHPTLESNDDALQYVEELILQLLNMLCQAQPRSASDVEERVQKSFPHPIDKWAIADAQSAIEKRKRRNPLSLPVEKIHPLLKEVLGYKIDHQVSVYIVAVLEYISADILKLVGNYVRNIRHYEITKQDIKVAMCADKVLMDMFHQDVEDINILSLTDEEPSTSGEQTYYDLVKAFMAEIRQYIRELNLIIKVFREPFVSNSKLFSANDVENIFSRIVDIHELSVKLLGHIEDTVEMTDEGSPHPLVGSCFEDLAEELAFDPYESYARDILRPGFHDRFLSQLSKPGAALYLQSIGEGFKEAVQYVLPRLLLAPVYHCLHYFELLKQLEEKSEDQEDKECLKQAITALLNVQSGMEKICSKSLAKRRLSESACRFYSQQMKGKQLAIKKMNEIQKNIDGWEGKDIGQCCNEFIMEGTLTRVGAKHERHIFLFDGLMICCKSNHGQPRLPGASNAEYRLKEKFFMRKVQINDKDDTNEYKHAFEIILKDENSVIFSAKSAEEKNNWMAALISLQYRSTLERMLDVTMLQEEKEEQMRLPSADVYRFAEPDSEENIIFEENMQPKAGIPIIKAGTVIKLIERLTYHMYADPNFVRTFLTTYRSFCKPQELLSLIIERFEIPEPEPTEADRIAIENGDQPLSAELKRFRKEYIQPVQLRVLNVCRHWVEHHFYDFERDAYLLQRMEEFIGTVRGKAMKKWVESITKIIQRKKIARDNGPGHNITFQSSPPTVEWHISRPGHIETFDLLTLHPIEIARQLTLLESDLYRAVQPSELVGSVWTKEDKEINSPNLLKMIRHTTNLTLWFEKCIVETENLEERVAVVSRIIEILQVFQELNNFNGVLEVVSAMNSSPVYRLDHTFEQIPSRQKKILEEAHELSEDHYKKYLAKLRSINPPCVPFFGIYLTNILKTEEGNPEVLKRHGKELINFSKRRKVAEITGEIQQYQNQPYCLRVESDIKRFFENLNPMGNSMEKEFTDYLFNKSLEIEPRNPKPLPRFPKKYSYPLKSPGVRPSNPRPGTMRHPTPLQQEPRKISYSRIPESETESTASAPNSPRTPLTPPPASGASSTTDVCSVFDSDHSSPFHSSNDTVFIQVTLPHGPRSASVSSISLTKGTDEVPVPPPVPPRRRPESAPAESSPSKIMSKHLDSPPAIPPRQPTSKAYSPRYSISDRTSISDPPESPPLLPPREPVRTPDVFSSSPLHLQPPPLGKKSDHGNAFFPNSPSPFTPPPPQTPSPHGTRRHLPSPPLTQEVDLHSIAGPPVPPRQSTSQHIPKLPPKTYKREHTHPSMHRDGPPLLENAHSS
In short: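 HTRF competition assay with Tag1-SOS1 and Tag2-KRAS-G12C (10 μM GTP). Compounds at 10000 nM-0.04 nM final (0.5% DMSO), incubated 15 min at 25° C, then anti-tag Tb3+/XL665 antibodies added for 3 h on ice. The 665/620 nm ratio was compared with control and IC50 derived by nonlinear fit.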

SOS1 protein = molecular target: T2, SOS1 protein (Homo sapiens, UniProt Q07889); assay: SOS1 degradation assay (Western blot), NCI-H358 cells; format: cell-based; parameters: The degradation of SOS1 by the compounds was investigated on KRAS G12C mutant human non-small cell lung cancer cells NCI-H358; host or cells: NCI-H358 (human cancer cell lines); conditions: SOS1 degradation, NCI-H358 cells, 24 h, Western blot; for DC50: read-out: NCI-H358 (G12C) DC50; for Dmax: read-out: NCI-H358 (G12C) Dmax
T2 sequence (Q07889 1-1333): T1 sequence (Q07889 1-1333)
In short: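 Cells at 5×10^5 per well were treated for 24 h at 37 °C with compound at 0.03–3000 nM final. SOS1 in lysates was measured by Western blot with chemiluminescent densitometry and normalised to the control group. DC50 and Dmax came from nonlinear fits against log concentration.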

Row | IC50 [1] [nM] | IC50 [2] [nM] | IC50 [3] [nM] | IC50 [4] [nM] | IC50 (KRAS-G12C/SOS1) [nM] | DC50 (SOS1 protein) [nM] | Dmax (SOS1 protein) [%] | Compound
1 | – | – | – | – | ≤ 15 | < 50 | 80 to 100 | COc1cc2nc(C)nc(N[C@H](C)c3cc(-c4c(Cl)cccc4CN(C)C)cs3)c2cc1[C@H]1CC[C@H](C(=O)N2CCC(COCCC3CCN(C(=O)c4ccc(Cl)c(N5CCC(=O)NC5=O)c4)CC3)CC2)CC1 [Example 70, 1-(2-chloro-5-(4-(2-((1-((1R,4R)-4-(4-(((R)-1-(4-(2-chloro-6-((dimethylamino)methyl)phenyl)thien-2-yl)ethyl)amino)-7-methoxy-2-methylquinazolin-6-yl)cyclohexane-1-carbonyl)piperidin-4-yl)methoxy)ethyl)piperidine-1-carbonyl)phenyl)dihydropyrimidine-2,4(1H,3H)-dione]
2 | – | – | – | – | ≤ 15 | < 50 | 80 to 100 | COc1ccc(C(=O)N2CCC3(CCC(CN4CCN(C(=O)[C@H]5CC[C@H](c6cc7c(N[C@H](C)c8cc(-c9c(Cl)cccc9CN(C)C)cs8)nc(C)nc7cc6OC)CC5)CC4)CC3)CC2)cc1N1CCC(=O)NC1=O [Example 59, 1-(5-(9-((4-((1R,4R)-4-(4-(((R)-1-(4-(2-chloro-6-((dimethylamino)methyl)phenyl)thien-2-yl)ethyl)amino)-7-methoxy-2-methylquinazolin-6-yl)cyclohexane-1-carbonyl)piperazin-1-yl)methyl)-3-azaspiro[5.5]undecane-3-carbonyl)-2-methoxyphenyl)dihydropyrimidine-2,4(1H,3H)-dione]
3 | – | – | – | – | ≤ 15 | 100 to 500 | 50 to 80 | CNCc1ccccc1-c1csc([C@@H](C)Nc2nc(C)nc3cc(OC)c([C@H]4CC[C@H](C(=O)N(C)CCCC5CCC6(CC5)CCN(C(=O)c5ccc(Cl)c(N7CCC(=O)NC7=O)c5)CC6)CC4)cc23)c1 [Example 49, (1R,4R)—N-(3-(3-(4-chloro-3-(2,4-dioxotetrahydropyrimidin-1(2H)-yl)benzoyl)-3-azaspiro[5.5]undecan-9-yl)propyl)-4-(7-methoxy-2-methyl-4-(((R)-1-(4-(2-((methylamino)methyl)phenyl)thien-2-yl)ethyl)amino)quinazolin-6-yl)-N-methylcyclohexane-1-carboxamide]

The remaining lines, values behind:

Row | Compound | IC50 [1] [nM] | IC50 [2] [nM] | IC50 [3] [nM] | IC50 [4] [nM] | IC50 (KRAS-G12C/SOS1) [nM] | DC50 (SOS1 protein) [nM] | Dmax (SOS1 protein) [%]
4 | COc1cc2nc(C)nc(N[C@H](C)c3cc(N)cc(C(F)(F)F)c3)c2cc1C1CCC(C(=O)N2CCN(CC3CCC4(CC3)CCN(C(=O)c3ccc(OC)c(N5CCC(=O)NC5=O)c3)CC4)CC2)CC1 (stereo partly drawn) [Example 20, 1-(5-(9-((4-((1R,4R)-4-(4-(((R)-1-(3-amino-5-(trifluoromethyl)phenyl)ethyl)amino)-7-methoxy-2-methylquinazolin-6-yl)cyclohexane-1-carbonyl)piperazin-1-yl)methyl)-3-azaspiro[5.5]undecane-3-carbonyl)-2-methoxyphenyl)dihydropyrimidine-2,4(1H,3H)-dione] | ≤ 15 | 50 to 100 | 15 to 30 | ≤ 15 | – | – | –
5 | COc1cc2nc(C)nc(N[C@H](C)c3cc(-c4c(Cl)cccc4CN(C)C)cs3)c2cc1C1=CCC(C(=O)N2CCC(CCOCC3CCN(C(=O)c4ccc(Cl)c(C5CCC(=O)NC5=O)c4)CC3)CC2)CC1 (stereo partly drawn) [Example 46, 3-(2-chloro-5-(4-((2-(1-(4-(4-(((R)-1-(4-(2-chloro-6-((dimethylamino)methyl)phenyl)thien-2-yl)ethyl)amino)-7-methoxy-2-methylquinazolin-6-yl)cyclohex-3-ene-1-carbonyl)piperidin-4-yl)ethoxy)methyl)piperidine-1-carbonyl)phenyl)piperidine-2,6-dione] | – | – | – | – | ≤ 15 | < 50 | 50 to 80
6 | COc1cc2nc(C)nc(N[C@H](C)c3cc(N)cc(C(F)(F)F)c3)c2cc1[C@H]1CC[C@H](C(=O)N2CCN(CCCOC3CCN(C(=O)c4ccc(Cl)c(N5CCC(=O)NC5=O)c4)CC3)CC2)CC1 [Example 28, 1-(5-(4-(3-(4-((1R,4R)-4-(4-(((R)-1-(3-amino-5-(trifluoromethyl)phenyl)ethyl)amino)-7-methoxy-2-methylquinazolin-6-yl)cyclohexane-1-carbonyl)piperazin-1-yl)propoxy)piperidine-1-carbonyl)-2-chlorophenyl)dihydropyrimidine-2,4(1H,3H)-dione] | – | – | – | – | ≤ 15 | < 50 | 50 to 80
